Test [1] addresses T1, plasma kallikrein (Homo sapiens, UniProt P03952).
T1 construct: from tissue
As to the kind of experiment: Neat human plasma assay, FXIIa contact pathway-activated, PFR-AMC substrate. The format is biochemical. The following applies: read-out: Human Plasma Assay: IC90. The gist of the method: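 Citrated human plasma (78% final) with compound, contact-activated by 10 nM human FXIIa in pKal buffer pH 7.5, with 100 μM PFR-AMC. Fluorescence (360/480 nm) followed 5 min at room temperature; rates versus concentration fitted by 4-parameter equation for IC50/IC90.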

The target in test [2] is human activated kallikrein enzyme (Homo sapiens, UniProt P03952). As to the kind of experiment: Plasma kallikrein inhibition, fluorogenic PFR-AMC substrate, 500 pM activated kallikrein format. The class given is biochemical. The note with it: 300 uM PFR-AMC, 30 min preincubation, 10 min reaction. The gist of the method: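 500 pM enz + cpd, 30 min RT preinc; start w/ PFR-AMC 300 uM; 10 min RT; Ex380/Em460. Buffer: Tris 20 mM pH 7.5, EDTA 1 mM, NaCl 150 mM, PEG-400 0.1%, Triton 0.1%. EC50.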
Sequence of human activated kallikrein enzyme (P03952 391-638 limits assumed): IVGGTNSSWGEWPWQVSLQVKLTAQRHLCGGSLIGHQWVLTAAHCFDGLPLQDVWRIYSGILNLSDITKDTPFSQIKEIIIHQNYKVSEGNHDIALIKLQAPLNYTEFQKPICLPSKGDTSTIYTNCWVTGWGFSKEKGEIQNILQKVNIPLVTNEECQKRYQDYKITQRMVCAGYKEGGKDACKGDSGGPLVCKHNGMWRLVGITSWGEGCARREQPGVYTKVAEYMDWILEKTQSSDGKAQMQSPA
Sequence of human activated kallikrein enzyme (P03952 20-390 partner limits assumed): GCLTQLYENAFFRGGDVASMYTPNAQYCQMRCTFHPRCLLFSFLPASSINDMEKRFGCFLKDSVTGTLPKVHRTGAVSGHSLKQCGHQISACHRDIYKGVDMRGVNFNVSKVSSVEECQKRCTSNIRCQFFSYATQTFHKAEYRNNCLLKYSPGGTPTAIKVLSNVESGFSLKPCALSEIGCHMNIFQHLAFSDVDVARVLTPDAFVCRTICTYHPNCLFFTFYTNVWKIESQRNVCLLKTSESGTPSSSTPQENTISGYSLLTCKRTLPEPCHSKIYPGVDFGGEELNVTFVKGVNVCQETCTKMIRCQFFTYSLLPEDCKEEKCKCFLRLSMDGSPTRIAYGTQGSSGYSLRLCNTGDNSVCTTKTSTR

[3] abbreviates: citrated human plasma 78% final, 10 nM human FXIIa, 100 μM PFR-AMC.
Setting [4] is: 500 pM activated kallikrein, read-out: Primary Dose Response Assay: Average EC50.

Where two headings read alike, the source gives them in different places.

T1 sequence (P03952 391-638 limits assumed): as the sequence (P03952 391-638 limits assumed) above
T1 sequence (P03952 20-390 partner limits assumed): as the sequence (P03952 20-390 partner limits assumed) above

By IC90 is commonly meant the point of the concentration-response curve where the effect stands at 90%. In general, EC50 refers to the concentration needed to bring the measured effect to its halfway point. `CN1CCN(c2cc(C3CC3)cn3cc(CNc4cc(NC(=O)[C@H]5C[C@@H]5c5cccc(Cl)c5)ncn4)nc23)C1=O` [Example I-157, (1S,2S)-2-(3-chlorophenyl)-N-(6-(((6-cyclopropyl-8-(3-methyl-2-oxoimidazolidin-1-yl)imidazo[1,2-a]pyridin-2-yl)methyl)amino)pyrimidin-4-yl)cyclopropane-1-carboxamide]: the IC90 in test [1] (setting [3]) was 1500 to 10000 nM. The EC50 in test [2] (setting [4]) is < 1 nM.
On the same counts, the results for `CS(=O)(=O)c1cc(C2CC2)cn2cc(CNc3ccnc(NC(=O)[C@H]4C[C@@H]4c4cccc(Cl)c4)c3)nc12` [Example I-235, (1S,2S)-2-(3-chlorophenyl)-N-(4-(((6-cyclopropyl-8-(methylsulfonyl)imidazo[1,2-a]pyridin-2-yl)methyl)amino)pyridin-2-yl)cyclopropane-1-carboxamide] are 400 to 1500 nM and < 1 nM.
On the same counts, the results for `O=C(Nc1cc(NCc2cn3cc(C4CC4)cc(N4CC5CC5C4=O)c3n2)ncn1)[C@H]1C[C@@H]1c1cc(Cl)ccn1` (stereo partly drawn) [Example 327, (1S,2S)-2-(4-chloropyridin-2-yl)-N-(6-(((6-cyclopropyl-8-(2-oxo-3-azabicyclo[3.1.0]hexan-3-yl)imidazo[1,2-a]pyridin-2-yl)methyl)amino)pyrimidin-4-yl)cyclopropane-1-carboxamide] are < 400 nM and < 1 nM.
For `N#CCCc1cc(C2CC2)cn2cc(COc3ccnc(NC(=O)[C@H]4C[C@@H]4c4cccc(Cl)c4)c3)nc12` (racemic) [Example 566, rac-(1S*,2S*)-2-(3-chlorophenyl)-N-(4-((8-(2-cyanoethyl)-6-cyclopropylimidazo[1,2-a]pyridin-2-yl)methoxy)pyridin-2-yl)cyclopropane-1-carboxamide], the IC90 in test [1] (setting [3]) fell in the range of 10000 to 48000 nM. Besides, in test [2] (setting [4]), the EC50 was in the range of 1 to 10 nM.
With `CN1C(=O)CN(c2cc(C3CC3)cn3cc(CNc4cc(NC(=O)[C@H]5C[C@@H]5c5cc(Cl)ccn5)ncn4)nc23)C1=O` (racemic) [Example I-262, rac-(1S*,2S*)-2-(4-chloropyridin-2-yl)-N-(6-(((6-cyclopropyl-8-(3-methyl-2,4-dioxoimidazolidin-1-yl)imidazo[1,2-a]pyridin-2-yl)methyl)amino)pyrimidin-4-yl)cyclopropane-1-carboxamide], the IC90 in test [1] (setting [3]) was in the range of 400 to 1500 nM. The EC50 in test [2] (setting [4]) was < 1 nM.
The matching figures for `Cc1ccnc([C@H]2C[C@@H]2C(=O)Nc2cc(N3C[C@@H](O)C[C@@H]3c3cn4cc(C5CC5)ccc4n3)ncn2)n1` (relative stereo) [Example 476, rac-(1S*,2S*)-N-(6-((2R,4S)-2-(6-cyclopropylimidazo[1,2-a]pyridin-2-yl)-4-hydroxypyrrolidin-1-yl)pyrimidin-4-yl)-2-(4-methylpyrimidin-2-yl)cyclopropane-1-carboxamide]: 1500 to 10000 nM and < 1 nM.
On to `Cc1ccnc([C@H]2C[C@@H]2C(=O)Nc2cc(N[C@H](C)c3cn4cc(C5CC5)cc(N5C[C@@H]6C[C@@H]6C5=O)c4n3)ncn2)n1` (racemic) [Example 443, (1S,2S)—N-(6-(((R)-1-(6-cyclopropyl-8-((1R*,5S*)-2-oxo-3-azabicyclo[3.1.0]hexan-3-yl)imidazo[1,2-a]pyridin-2-yl)ethyl)amino)pyrimidin-4-yl)-2-(4-methylpyrimidin-2-yl)cyclopropane-1-carboxamide], for which the IC90 in test [1] (setting [3]) was < 400 nM. Also, in test [2] (setting [4]), the EC50 is < 1 nM.
On the same counts, the results for `Cc1ccc(C#N)c([C@H]2C[C@@H]2C(=O)Nc2cc(NCc3cn4cc(C5CC5)cc(N5CC(=O)N(C)C5=O)c4n3)ncn2)n1` (racemic) [Example I-166, rac-(1S*,2S*)-2-(3-cyano-6-methylpyridin-2-yl)-N-(6-(((6-cyclopropyl-8-(3-methyl-2,4-dioxoimidazolidin-1-yl)imidazo[1,2-a]pyridin-2-yl)methyl)amino)pyrimidin-4-yl)cyclopropane-1-carboxamide] are 400 to 1500 nM and < 1 nM.
Consider `N#Cc1ccc(Cl)cc1[C@H]1C[C@@H]1C(=O)Nc1cc(N2C[C@@H](O)C[C@@H]2c2cn3cc(C4CC4)ccc3n2)ncn1` (relative stereo) [Example 477, rac-(1S*,2S*)-2-(5-chloro-2-cyanophenyl)-N-(6-((2R,4S)-2-(6-cyclopropylimidazo[1,2-a]pyridin-2-yl)-4-hydroxypyrrolidin-1-yl)pyrimidin-4-yl)cyclopropane-1-carboxamide], for which the IC90 in test [1] (setting [3]) lay within 1500 to 10000 nM. Besides, the EC50 in test [2] (setting [4]) lay within 1 to 10 nM.
The matching figures for `Cc1ccnc([C@H]2C[C@@H]2C(=O)Nc2cc(N[C@H](C)c3cn4cc(C5CC5)cc(N5CC6(COC6)OC5=O)c4n3)nc(C)n2)n1` [Example 437, (1S,2S)-N-(6-(((R)-1-(6-cyclopropyl-8-(6-oxo-2,5-dioxa-7-azaspiro[3.4]octan-7-yl)imidazo[1,2-a]pyridin-2-yl)ethyl)amino)-2-methylpyrimidin-4-yl)-2-(4-methylpyrimidin-2-yl)cyclopropane-1-carboxamide]: < 400 nM and < 1 nM.
On the same counts, the results for `CC(C)(O)c1cc(C2CC2)cn2cc(CNc3ccnc(NC(=O)[C@H]4C[C@@H]4c4cc(Cl)ccc4C#N)c3)nc12` (racemic) [Example 131, rac-(1S*,2S*)-2-(5-chloro-2-cyanophenyl)-N-(4-(((6-cyclopropyl-8-(2-hydroxypropan-2-yl)imidazo[1,2-a]pyridin-2-yl)methyl)amino)pyridin-2-yl)cyclopropane-1-carboxamide] are 10000 to 48000 nM and < 1 nM.
The matching figures for `O=C(Nc1cc(NCc2cn3cc(C4CC4)cc(N4CCSCC4=O)c3n2)ncn1)[C@H]1C[C@@H]1c1cccc(Cl)c1` [Example I-155, (1S,2S)-2-(3-chlorophenyl)-N-(6-(((6-cyclopropyl-8-(3-oxothiomorpholino)imidazo[1,2-a]pyridin-2-yl)methyl)amino)pyrimidin-4-yl)cyclopropane-1-carboxamide]: 1500 to 10000 nM and < 1 nM.
On to `CC[C@@H](Nc1cc(NC(=O)[C@H]2C[C@@H]2c2nccc(C)n2)nc(C)n1)c1cn2cc(C3CC3)cc(N3CC(=O)N(C)C3=O)c2n1` [Example 358, (1S,2S)-N-(6-(((R)-1-(6-cyclopropyl-8-(3-methyl-2,4-dioxoimidazolidin-1-yl)imidazo[1,2-a]pyridin-2-yl)propyl)amino)-2-methylpyrimidin-4-yl)-2-(4-methylpyrimidin-2-yl)cyclopropane-1-carboxamide], for which the IC90 in test [1] (setting [3]) lay in the range of 400 to 1500 nM. In addition, in test [2] (setting [4]), the EC50 was < 1 nM.
Regarding `Cc1ccnc([C@H]2C[C@@H]2C(=O)Nc2cc(N[C@H](C)c3cn4cc(CF)cc(N5CC(=O)N(C)C5=O)c4n3)ncn2)n1` [Example 678, (1S,2S)—N-(6-(((R)-1-(6-(fluoromethyl)-8-(3-methyl-2,4-dioxoimidazolidin-1-yl)imidazo[1,2-a]pyridin-2-yl)ethyl)amino)pyrimidin-4-yl)-2-(4-methylpyrimidin-2-yl)cyclopropane-1-carboxamide], the IC90 in test [1] was < 400 nM. In addition, the EC50 in test [2] (Primary Dose Response Assay: Average EC50, 500 pM activated kallikrein) is < 1 nM.
On to `O=C(Nc1cc(NCc2cn3cc(C4CC4)cc(-c4ccc[nH]c4=O)c3n2)ncn1)[C@H]1C[C@@H]1c1cccc(Cl)c1` [Example 305, (1S,2S)-2-(3-chlorophenyl)-N-(6-(((6-cyclopropyl-8-(2-oxo-1,2-dihydropyridin-3-yl)imidazo[1,2-a]pyridin-2-yl)methyl)amino)pyrimidin-4-yl)cyclopropane-1-carboxamide], for which, in test [1] (setting [3]), the IC90 was in the range of 1500 to 10000 nM. Moreover, the EC50 in test [2] (setting [4]) was 1 to 10 nM.
For `O=C(Nc1cc(NCc2cn3cc(C4CC4)cc(C4CNC4)c3n2)ccn1)[C@H]1C[C@@H]1c1cccc(Cl)c1` [Example 284, (1S,2S)—N-(4-(((8-(azetidin-3-yl)-6-cyclopropylimidazo[1,2-a]pyridin-2-yl)methyl)amino)pyridin-2-yl)-2-(3-chlorophenyl)cyclopropane-1-carboxamide], the IC90 in test [1] (setting [3]) is < 400 nM. Moreover, the 50% effective concentration (EC50) in test [2] (setting [4]) is < 1 nM.
Consider `CN1CCN(c2cc(C3CC3)cn3cc(CNc4cc(NC(=O)[C@H]5C[C@@H]5c5cccc(Cl)c5)ccn4)nc23)CC1` [Example I-243, (1S,2S)-2-(3-chlorophenyl)-N-(2-(((6-cyclopropyl-8-(4-methylpiperazin-1-yl)imidazo[1,2-a]pyridin-2-yl)methyl)amino)pyridin-4-yl)cyclopropane-1-carboxamide], for which the IC90 in test [1] (setting [3]) was 400 to 1500 nM. The EC50 in test [2] (setting [4]) is < 1 nM.
The matching figures for `O=C(Nc1cc(NCc2cn3cc(C4CC4)cc(N4CCN(C5CC5)CC4)c3n2)ccn1)[C@H]1C[C@@H]1c1cccc(Cl)c1` [Example I-232, (1S,2S)-2-(3-chlorophenyl)-N-(4-(((6-cyclopropyl-8-(4-cyclopropylpiperazin-1-yl)imidazo[1,2-a]pyridin-2-yl)methyl)amino)pyridin-2-yl)cyclopropane-1-carboxamide]: 1500 to 10000 nM and < 1 nM.
Regarding `Cc1ccnc([C@H]2C[C@@H]2C(=O)Nc2cc(NCc3cn4cc(C5CC5)cc(N5CCCC5=O)c4n3)ncn2)n1` [Example 377, (1S,2S)-N-(6-(((6-cyclopropyl-8-(2-oxopyrrolidin-1-yl)imidazo[1,2-a]pyridin-2-yl)methyl)amino)pyrimidin-4-yl)-2-(4-methylpyrimidin-2-yl)cyclopropane-1-carboxamide], the IC90 in test [1] (setting [3]) lay in the range of 400 to 1500 nM. Moreover, in test [2] (setting [4]), the EC50 was < 1 nM.

Source of the values: patent US20240228488A1 (TAKEDA PHARMACEUTICAL COMPANY LIMITED, priority 2021, published 2024).
